Test results from patent US9474730B2, “Methods and compositions for use with K-ras mediated disorders” (Board of Regents of the University of Texas System, priority 2012, dated 2016).
Structures can show the parent of a compound that is named as a salt.

Tests used:
[1] = molecular target: T1, GFP-K-rasG12V in MDCK or BHK cells (Homo sapiens, UniProt P01116, G12V); assay: Confocal fluorescence microscopy of GFP-tagged full length constitutively active Ras (G12V); format: cell-based, canine (MDCK), hamster (BHK); details: 48 h
T1 construct: MDCK and BHK cells expressing GFP-tagged full length constitutively active Ras (G12V) proteins; expressed in transfected cells
Method: FIG. 2: Illustrates that fendiline HCl mislocalizes GFP-K-rasG12V but not GFP-H-rasG12V: (A) MDCK or BHK [Baby Hamster Kidney] cells expressing GFP-K-rasG12V or GFP-H-rasG12V were grown on cover slips, treated with vehicle or fendiline HCl (4 μg/mL for MDCK and 6 μg/mL for BHK) for 48 h and fixed with paraformaldehyde. Cells were imaged using a confocal microscope. (B) BHK cells expressing GFP-K-rasG12V or GFP-H-rasG12V (green) were treated with vehicle or fendiline HCl (6 μg/mL) for 48 h. Following treatment, cells were fixed and immuno-labeled with antibodies against PDI (ER marker-red) or p58 (golgi marker-red). Colocalization between GFP and the respective marker protein is shown in yellow. Shown are representative images from 3 independent experiments wherein experimentation was performed in accordance with principles described herein;
Cells were further analyzed using fluorescence microscopy, where cells were grown on coverslips, treated with 1% vehicle (DMSO) or varying concentrations of selected compounds for 48 h, and fixed with 4% paraformaldehyde. The coverslips were mounted in Mowiol® and visualized by confocal microscopy (Nikon A1) using a 60× objective. The cells were immuno-staining, where cells were fixed, permeabilized in 0.1% Triton in PBS for 30 min, and blocked with 0.2% bovine serum albumin and 0.2% fish skin gelatin in PBS for 30 min. […]

[2] = molecular target: T2, mGFP-tagged K-rasG12V in BHK cells (Homo sapiens, UniProt P01116, G12V); assay: Immuno-electron microscopy and spatial analysis of plasma membrane sheets, K-rasG12V; format: cell-based, hamster; details: 6 μg/mL, 48 h
T2 construct: BHK cells expressing GFP-tagged full length constitutively active Ras (G12V) proteins; expressed in transfected cells
Method: FIG. 4: Illustrates that fendiline HCl alters plasma membrane association and nanoclustering of K-ras: Plasma membrane sheets were generated from cells expressing GFP-K-rasG12V or GFP-H-rasG12V. Cells were treated with vehicle or fendiline HCl (6 μg/mL) for 48 h. Plasma membrane sheets were labeled with anti-GFP antibody conjugated to 4.5 nm gold. The plasma membrane sheets were imaged in an electron microscope and the spatial distribution of the gold labeling was analyzed using Ripley's K-function. Maximum L(r)-r values above the 99% confidence interval (C.I.) for complete spatial randomness (CSR) indicate clustering at that value of r. […] Significant differences from the control pattern for fendiline treated cells were assessed using bootstrap tests, wherein experimentation was performed in accordance with principles described herein;
Immuno-EM and spatial analysis were conducted exactly as described previously (Hancock, J. F., and Prior, I. A. (2005). Electron microscopic imaging of Ras signaling domains. Methods 37, 165-172; Prior, I. A., Muncke, C., Parton, R. G., and Hancock, J. F. (2003). Direct visualization of Ras proteins in spatially distinct cell surface microdomains. J Cell Biol 160, 165-170). […] Intact 1-μm^2 areas of the plasma membrane sheet were identified using ImageJ, and the x-y coordinates of the gold particles were determined. […]

[3] = test system: BHK cells stably expressing K-rasG12V; assay: Signaling downstream of oncogenic K-ras by quantitative Western blotting; format: cell-based, hamster; details: 6 μg/mL, 48 h, K-rasG12V BHK cells
Method: FIG. 5: Illustrates that fendiline HCl inhibits Raf kinase activity and signaling downstream of oncogenic K-ras: BHK cells stably expressing K-rasG12V were treated with vehicle or fendiline HCl (6 μg/mL) for 48 h. (A) Raf kinase activity in membrane fractions prepared from the cells was measured in a coupled […] kinase assay. Data is shown as mean±SEM from 3 independent experiments. (B) ppMEK and ppERK in soluble protein fraction and pAkt levels in membrane protein fraction were measured by quantitative Western blotting. Actin and Akt were used as loading controls for soluble and membrane fractions, respectively. A representative blots are shown. Data is shown as mean±SEM from 3-4 independent experiments. Statistical significance was calculated using one way ANOVA and Student's T-test. (*=p<0.05), wherein experimentation was performed in accordance with principles described herein;
Preparation of whole-cell lysates: cells were lysed in Buffer B (50 mM Tris [pH 7.5], 75 mM NaCl, 25 mM NaF, 5 mM MgCl2, 5 mM EGTA, 1 mM dithiothreitol, 100 μM NaVO4, 1% Nonidet P-40 plus protease inhibitors). Cellular fractionation: cells were incubated in Buffer A (10 mm Tris-HCl, pH 7.5, 25 mm NaF, 5 mm MgCl2, 1 mm EGTA, 1 mm dithiothreitol, 100 μm NaVO4 plus protease inhibitors) for 30 minutes on ice and lysed by passing through a 27 G needle 30 times. The post nuclear supernatant was centrifuged at 100,000 g for 30 minutes and the membrane pellet was resuspended in Buffer A containing 1% Triton X-100.
Quantification of intensities was performed using FluorChemQ software.

[4] = test system: human oral cancer cells, PC3 prostate cancer cells and MDCK cells; details: cited from earlier work

Q: Which “localization of GFP-K-rasG12V relative to ER (PDI) and Golgi (p58) markers” value ([1]; BHK cells, 6 μg/mL, immunofluorescence) does the source give for `CC(NCCC(c1ccccc1)c1ccccc1)c1ccccc1` (centres unmarked) [fendiline HCl] here?
A: partially mislocalizes to the ER and golgi

Q: And the “inhibition of plasma membrane localization, K isoform compared to H and N” value ([1]; GFP-tagged full length Ras (G12V), 4 μg/mL for MDCK and 6 μg/mL for BHK)?
A: more potent inhibitor of plasma membrane localization of the K isoform as compared to H (FIG. 2A) and N

Q: What about the “clustering of K-rasG12V on plasma membrane” value [2] of the same molecule?
A: reduced clustering of both K- and H-rasG12V proteins

Q: And the “plasma membrane associated K-rasG12V (EM gold labeling)” value [2]?
A: reduces the plasma membrane associated K-rasG12V

Q: What about the pAkt levels ([3]; membrane fraction) of the same molecule?
A: decreases the pAkt levels, although not statistically significant

Q: And the “cellular levels of pERK” value ([3]; vs vehicle)?
A: significantly reduces

Q: And the “cellular levels of pMEK” value ([3]; vs vehicle)?
A: significantly reduces

Q: What about the “intracellular Ca2+” value [4] of the same molecule?
A: increase intracellular Ca^2+
